Data on two molecules can be found in patent publication US20240139211A1, “METHODS AND COMPOSITIONS FOR TREATING AMYOTROPHIC LATERAL SCLEROSIS” (Amylyx Pharmaceuticals, Inc., priority 2022, published 2024).

Some results are limits rather than exact numbers.

The subject of series [1] is CYP1A2 mRNA. The series is described as follows: in vitro. The following applies: human.
Series [2] has as its target OATP1B3 (Homo sapiens, UniProt Q9NPD5). The experiment in a line: Inhibitor of OATP1B3, probe substrate uptake. The following applies: for Inhibition of OATP1B3 / Inhibitor of OATP1B3: two concentrations per test article.

Sequence of OATP1B3 (Q9NPD5 whole entry): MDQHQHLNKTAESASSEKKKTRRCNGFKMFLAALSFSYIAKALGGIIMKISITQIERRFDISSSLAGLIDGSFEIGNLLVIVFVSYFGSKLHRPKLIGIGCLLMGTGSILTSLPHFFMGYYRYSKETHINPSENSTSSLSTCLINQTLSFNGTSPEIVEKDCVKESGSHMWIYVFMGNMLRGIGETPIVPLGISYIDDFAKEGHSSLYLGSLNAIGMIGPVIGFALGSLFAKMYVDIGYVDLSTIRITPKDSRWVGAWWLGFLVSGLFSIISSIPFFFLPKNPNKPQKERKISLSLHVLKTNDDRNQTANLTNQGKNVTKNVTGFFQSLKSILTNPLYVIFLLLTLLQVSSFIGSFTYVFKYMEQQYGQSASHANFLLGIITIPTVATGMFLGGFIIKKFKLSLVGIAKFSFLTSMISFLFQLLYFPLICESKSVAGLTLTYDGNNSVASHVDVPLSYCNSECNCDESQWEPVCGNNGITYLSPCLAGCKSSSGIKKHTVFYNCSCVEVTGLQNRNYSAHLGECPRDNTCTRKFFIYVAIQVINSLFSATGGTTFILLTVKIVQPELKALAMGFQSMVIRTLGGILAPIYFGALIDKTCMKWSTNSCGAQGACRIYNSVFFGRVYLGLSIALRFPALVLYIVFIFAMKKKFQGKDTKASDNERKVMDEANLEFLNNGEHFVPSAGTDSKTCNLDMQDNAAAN

With `C[C@H](CCC(=O)NCC(=O)O)[C@H]1CC[C@H]2[C@@H]3[C@@H](O)C[C@@H]4C[C@H](O)CC[C@]4(C)[C@H]3CC[C@]12C` [Glycoursodeoxycholic acid, glycoursodeoxycholic acid], in series [1] (hepatocyte cultures), the EC50 at 72 h was determined as 1.88 µM and the fold induction at 72 h came to 12.2. Also, the “Uptake activity remaining, OATP1B3” value in series [2] (100 μM) is on record as 10.6%. Also, the potency estimated from few doses in series [2] (read-out: Estimated IC50, OATP1B3, estimated from two concentrations) is less than 100 µM. Also, in series [2], the “Inhibition of OATP1B3” value is on record as “inhibited” and the “Inhibitor of OATP1B3” value is “Yes”.
Regarding `O=C(O)Cc1ccccc1` [Phenylacetic acid, phenylacetic acid], in series [1], the EC50 at 72 h was determined as 8.18 µM. Besides, in series [2], the “Inhibition of OATP1B3” value is “did not inhibit” and the “Inhibitor of OATP1B3” value was “No”.

One may read the EC50 as the concentration at which the effect is half-maximal. Higher therefore signals weaker potency. A word on the fold induction: it is the signal under treatment as a multiple of the control signal.
